# Experimental data as given in patent publication US11613558B2, “Peptides and pharmaceutical compositions for treating eye diseases” (Yuyu Pharma, Inc., priority 2018, dated 2023).
# Square brackets hold non-standard residues; d marks the D form. Peptide text beside a SMILES is read from it. ξ: configuration not given here. Hyp = O=C(O)[C@@H]1C[C@@H](O)CN1; Ile(3ξ) = CCC(C)[C@H](N)C(=O)O
# What was measured:
# [1] = Stability in aqueous solution under long-term storage conditions (related substances); assay type: physicochemical; details: 25° C., 75% RH
# Method: In order to confirm the stability of each test substance in an aqueous solution, […] of each sample was dissolved in 1 ml of water to a concentration of 1 mg/ml, which was then charged to a glass vial, plugged with a rubber cap, sealed with an aluminum cap, and stored under long-term storage conditions (25° C., 75% RH). The stability of the test substance was evaluated by measuring the amount of related substances at the time of one week, two weeks, four weeks, eight weeks, and twelve weeks under the long-term storage conditions.
# [2] = tested on: rats with dry eye syndrome (extraorbital lacrimal gland excision, ELGE); assay: Amount of tear secretion (Schirmer test, cobalt chloride paper) in ELGE rats with dry eye syndrome; assay type: in vivo, rat; details: for Tear Volumes, Day 7 / Tear Volumes, Day 14: ELGE rats, 3 mg/ml, 5 μl/eye twice daily; for Tear Volumes, Day 7: day 7 of administration; for Tear Volumes, Day 14: day 14 of administration; for Change in amount of tear secretion as compared with the ELGE control group: 3% solution as printed, after administration for 14 days
# Text: (§1) In order to evaluate the eye protection effect on dry eye syndrome by YDE-001 to YDE-028 prepared in Example 1, a total of 320 Sprague-Dawley-type male rats (OrientBio, Seungnam, Korea) were adapted for 7 days. Thereafter, dry eye syndrome was induced in 264 test rats through extraorbital lacrimal gland excision (hereinafter, ELGE). 8 test rats without the eye abnormality were subjected to a sham operation as a control group.
# (§2) The rat was systemically anesthetized by inhaling a mixed gas of 2% to 3% of isoflurane (Hana Pharm. Co., Hwasung, Korea), 70% of N2O, and 28.6% of O2 using a rodent anesthesia machine (Surgivet, Waukesha, Wis., USA) and a ventilator (Model 687, Harvard Apparatus, Cambridge, UK). Thereafter, the extraorbital lacrimal gland located in the subdermal area above the masseter muscle and […] was excised through a transverse incision in a size of 10 mm on the anterior part of the left ear tragus. The skin was sutured by a general method. […] After 6 days from the ELGE operation, it was checked through the Schirmer test by measuring the amount of tear secretion whether dry eye syndrome had been induced. Meanwhile, each rat of the control group with the sham operation was checked for the presence and location of the extraorbital lacrimal gland through a skin incision, and the skin was then sutured without the excision thereof (FIG. 4).
# (§3) In addition, in order to evaluate the eye protection effect on dry eye syndrome by YDE-029 to YDE-043 prepared in Example 1, a total of 200 Sprague-Dawley-type male rats (OrientBio, Seungnam, Korea) were adapted for 7 days. Dry eye syndrome was induced in 165 test rats through the ELGE. 8 test rats without the eye abnormality were subjected to the sham operation as a control group. The ELGE was carried out as described above.
# (§4) For YDE-001 to YDE-028, YY-102 and the 28 YDE-series were each dissolved in physiological saline at a concentration of 3 mg/ml and administered at a dose of 5 μl/eye at 9:30 am and 3:30 pm daily for 14 days after 7 days from the ELGE operation for a total of 28 times. The DS solution was dissolved in physiological saline at a concentration of 30 mg/ml and administered at a dose of […] twice a day for 14 days after 7 days from the ELGE operation for a total of 28 times. For the sham control and the ELGE control groups, the same stimulation as the administration was applied. In order to prevent excessive eye dryness, the same volume of physiological saline was applied in the same manner in place of the test substances.
# as §4, with “Further, for YDE-029 to YDE-043,” for “For YDE-001 to YDE-028,”, “YDE-029 to YDE-043, YY-102 and” for “YDE-001 to YDE-028, YY-102 and”, “and the 15 YDE-series were” for “and the 28 YDE-series were”, “the test substances (FIG. 7).” for “the test substances.”
# After 6 days from the ELGE surgery, the changes in the amount of tear secretion were measured at day 7 and day 14 after the administration of YDE-001 to YDE-043. The amount of tear secretion was measured by the […] travel distance of tears absorbed by cobalt chloride paper in a size of 1×15 mm (Toyo Roshi Kaisha, Japan).
# The cobalt chloride paper was placed in the lateral canthus of a rat for 60 seconds to absorb tears (FIG. 9). The length of the area absorbed from the corner of the cobalt chloride paper was measured with an electronic digital caliper (Mytutoyo, Tokyo, Japan) (FIG. 8).
# [3] = tested on: cornea of rats with dry eye syndrome (ELGE); assay: Corneal permeability of fluorescent dye (corneal damage) in ELGE rats with dry eye syndrome; assay type: in vivo, rat; details: 5 μl/eye twice daily, day 14
# Text: as §1, §2, §3, §4
# as §4, with “Further, for YDE-029 to YDE-043,” for “For YDE-001 to YDE-028,”, “YDE-029 to YDE-043, YY-102 and” for “YDE-001 to YDE-028, YY-102 and”, “and the 15 YDE-series were” for “and the 28 YDE-series were”, “the test substances (FIG. 7).” for “the test substances.”
# After YDE-001 to YDE-028 were each administered to the eyes […], the changes in the corneal permeability were checked.
# In order to measure the corneal permeability, Zolethyl 50™ (Virbac Lab., Carros, France), an animal anesthetic, was intraperitoneally injected at a dose of 25 mg/kg. Thereafter, saline containing a 1% (v/v) fluorescent solution (fluorescein sodium salt, Tokyo Kasei Kogyo Co., Tokyo, Japan) was applied to the eyes at a dose of 5 μl/eye. The eyes thus treated were closed and fixed with a tape. After 1 hour, the remaining fluorescent solution was removed using a cotton swab (FIG. 12). […]
# [4] = Table 4, study of YDE-001 to YDE-028
# [5] = Table 6, study of YDE-001 to YDE-028, 3 mg/ml
# [6] = Table 5, study of YDE-029 to YDE-043
# [7] = Table 7, study of YDE-029 to YDE-043, 3 mg/ml
SMILES,Amount of related substances (after 12 weeks) [1] [%],"Tear Volumes, Day 7 [2, 4] [mm^3]","Tear Volumes, Day 14 [2, 4] [mm^3]","Permeability of fluorescent dye [3, 5] [%]",Change in amount of tear secretion as compared with the ELGE control group ([2]; study of YDE-001 to YDE-028),"Tear Volumes, Day 7 [2, 6] [mm^3]","Tear Volumes, Day 14 [2, 6] [mm^3]","Permeability of fluorescent dye [3, 7] [%]",Change in amount of tear secretion as compared with the ELGE control group ([2]; study of YDE-029 to YDE-043)
CC(C)C[C@H](NC(=O)CNC(=O)[C@H](Cc1c[nH]c2ccccc12)NC(=O)[C@H](CCC(N)=O)NC(=O)CNC(=O)[C@@H]1C[C@@H](O)CN1)C(=O)N[C@@H](C)C(=O)NCC(=O)N1CCC[C@H]1C(=O)N[C@@H](CCCCN)C(=O)O [YDE-014] (H-[Hyp]GQWGLAGPK-OH),6.72,3.81 ± 1.21,5.62 ± 1.85,31.15 ± 10.87,,,,,
CC(C)C[C@H](NC(=O)CNC(=O)[C@H](CO)NC(=O)[C@H](CCC(N)=O)NC(=O)CNC(=O)[C@@H]1C[C@@H](O)CN1)C(=O)N[C@@H](C)C(=O)NCC(=O)N1CCC[C@H]1C(=O)N[C@@H](CCCCN)C(=O)O [YDE-006] (H-[Hyp]GQSGLAGPK-OH),3.67,3.44 ± 1.69,5.35 ± 1.68,33.23 ± 13.26,,,,,
CCC(C)[C@H](NC(=O)[C@H](CCC(N)=O)NC(=O)CNC(=O)[C@@H]1C[C@@H](O)CN1)C(=O)NCC(=O)N[C@@H](CC(C)C)C(=O)N[C@@H](C)C(=O)NCC(=O)N1CCC[C@H]1C(=O)N[C@@H](CCCCN)C(=O)O (stereo partly drawn) [YDE-010] (H-[Hyp]GQ[Ile(3ξ)]GLAGPK-OH),4.39,3.42 ± 1.31,4.35 ± 1.36,49.29 ± 12.06,did not show any significant changes,,,,
CC(C)C[C@H](NC(=O)CNC(=O)[C@H](CC(C)C)NC(=O)[C@H](CCC(N)=O)NC(=O)CNC(=O)[C@@H]1C[C@@H](O)CN1)C(=O)O [YDE-042] (H-[Hyp]GQLGL-OH),3.98,,,,,6.30 ± 1.08,7.97 ± 1.48,20.72 ± 11.37,
CC(C)C[C@H](NC(=O)CNC(=O)[C@H](CCCCN)NC(=O)[C@H](CCC(N)=O)NC(=O)CNC(=O)[C@@H]1C[C@@H](O)CN1)C(=O)N[C@@H](C)C(=O)NCC(=O)N1CCC[C@H]1C(=O)N[C@@H](CCCCN)C(=O)O [YDE-005] (H-[Hyp]GQKGLAGPK-OH),2.97,3.85 ± 0.93,5.08 ± 1.91,37.98 ± 11.53,,,,,
CC(C)C[C@H](NC(=O)[C@H](Cc1ccc(O)cc1)NC(=O)[C@H](CC(=O)O)NC(=O)[C@H](CCC(N)=O)NC(=O)CNC(=O)[C@@H]1C[C@@H](O)CN1)C(=O)N[C@@H](C)C(=O)NCC(=O)N1CCC[C@H]1C(=O)N[C@@H](CCCCN)C(=O)O [YDE-020] (H-[Hyp]GQDYLAGPK-OH),21.54,3.41 ± 1.47,4.20 ± 1.35,47.84 ± 13.47,did not show any significant changes,,,,
CC(C)C[C@H](NC(=O)CNC(=O)[C@H](Cc1ccccc1)NC(=O)[C@H](CCC(N)=O)NC(=O)CNC(=O)[C@@H]1C[C@@H](O)CN1)C(=O)N[C@@H](C)C(=O)NCC(=O)N1CCC[C@H]1C(=O)N[C@@H](CCCCN)C(=O)O [YDE-012] (H-[Hyp]GQFGLAGPK-OH),3.57,3.68 ± 0.99,5.67 ± 1.86,31.01 ± 11.38,,,,,
CC(C)C[C@H](NC(=O)[C@H](Cc1c[nH]cn1)NC(=O)[C@H](CC(=O)O)NC(=O)[C@H](CCC(N)=O)NC(=O)CNC(=O)[C@@H]1C[C@@H](O)CN1)C(=O)N[C@@H](C)C(=O)NCC(=O)N1CCC[C@H]1C(=O)N[C@@H](CCCCN)C(=O)O [YDE-022] (H-[Hyp]GQDHLAGPK-OH),19.23,3.19 ± 0.67,4.10 ± 0.95,47.82 ± 10.01,did not show any significant changes,,,,
CC(C)C[C@H](NC(=O)CNC(=O)[C@H](CCC(=O)O)NC(=O)[C@H](CCC(N)=O)NC(=O)CNC(=O)[C@@H]1C[C@@H](O)CN1)C(=O)N[C@@H](C)C(=O)NCC(=O)N1CCC[C@H]1C(=O)N[C@@H](CCCCN)C(=O)O [YDE-001] (H-[Hyp]GQEGLAGPK-OH),3.92,4.88 ± 1.62,5.92 ± 2.19,25.49 ± 11.62,,,,,
CC(C)C[C@H](NC(=O)CNC(=O)[C@H](CC(C)C)NC(=O)[C@H](CCC(N)=O)NC(=O)CNC(=O)[C@@H]1C[C@@H](O)CN1)C(=O)N[C@@H](C)C(=O)O [YDE-041] (H-[Hyp]GQLGLA-OH),3.04,,,,,5.01 ± 1.26,6.25 ± 2.15,46.38 ± 26.65,did not show any significant changes
CC(C)C[C@H](NC(=O)[C@H](Cc1ccccc1)NC(=O)[C@H](CC(=O)O)NC(=O)[C@H](CCC(N)=O)NC(=O)CNC(=O)[C@@H]1C[C@@H](O)CN1)C(=O)N[C@@H](C)C(=O)NCC(=O)N1CCC[C@H]1C(=O)N[C@@H](CCCCN)C(=O)O [YDE-019] (H-[Hyp]GQDFLAGPK-OH),13.43,4.84 ± 1.39,4.52 ± 1.07,40.39 ± 12.57,did not show any significant changes,,,,
"O=c1ccn([C@@H]2O[C@H](COP(=O)(O)OP(=O)(O)OP(=O)(O)OP(=O)(O)OC[C@H]3O[C@@H](n4ccc(=O)[nH]c4=O)[C@H](O)[C@@H]3O)[C@@H](O)[C@H]2O)c(=O)[nH]1 [DS, diquafosol sodium, reference compound]",,,,,increased,,,,increased
